Data reported in PubChem BioAssay (NCI).
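1) Cells in 96-well plates. 2) Compound, 48 h, 5 concentrations. 3) Linear interpolation between surrounding doses. 4) Unreached endpoint = highest concentration. Here, GI50 denotes the concentration required for 50% inhibition of growth. The concentration for full growth arrest is given as TGI.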 Where a SMILES comes first, the peptide text is derived from it. The star is where a group is joined. Boc = CC(C)(C)OC(=O)*

How the values were obtained:
Experiment in all cases: growth of human tumour cells (NCI), 48 h
HL-60(TB) leukemia = test system: HL-60(TB) leukemia
IGROV1 ovarian = test system: IGROV1 ovarian
786-0 renal = test system: 786-0 renal
ACHN renal = test system: ACHN renal
SW-620 colon = test system: SW-620 colon
HOP-92 NSCLC = test system: HOP-92 NSCLC
SR leukemia = test system: SR leukemia
SNB-75 CNS = test system: SNB-75 CNS
MCF7 breast = test system: MCF7 breast
SK-MEL-2 melanoma = test system: SK-MEL-2 melanoma

SMILES	TGI (HL-60(TB) leukemia) [µM]	TGI (IGROV1 ovarian) [µM]	TGI (786-0 renal) [µM]	TGI (ACHN renal) [µM]	TGI (SW-620 colon) [µM]	TGI (HOP-92 NSCLC) [µM]	TGI (SR leukemia) [µM]	TGI (SNB-75 CNS) [µM]	TGI (MCF7 breast) [µM]	TGI (SK-MEL-2 melanoma) [µM]	GI50 (HL-60(TB) leukemia) [µM]	GI50 (IGROV1 ovarian) [µM]	GI50 (ACHN renal) [µM]	GI50 (SW-620 colon) [µM]	GI50 (HOP-92 NSCLC) [µM]	GI50 (SR leukemia) [µM]	GI50 (SNB-75 CNS) [µM]	GI50 (MCF7 breast) [µM]	GI50 (SK-MEL-2 melanoma) [µM]
O=C1c2cc(I)ccc2N2CCN=C2N1Cc1ccccc1	> 100	> 100	> 100	> 100	> 100	80.1	> 100	39.7	> 100	> 100									
CCC(=O)Nc1cccc(N=Cc2ccc(OC(=O)/C=C\c3ccccc3)cc2)c1	> 75	> 75	> 75	> 75	> 75	> 75	> 75	> 75	> 75	> 75									
Oc1c(CN2CCCC2)ccc2cccnc12	> 53.9	> 84.5	> 100	59.5	> 100	> 100	> 100	> 100	> 100	> 95.6									
COc1ccc(-n2c(SC(CN3CCOCC3)CN3CCCC3=O)nc3ccccc3c2=O)cc1 (stereo not drawn)	> 100	> 100	> 100	> 100	> 100	> 100	> 100	> 100	> 100	> 100									
Cc1nn(C(=O)c2ccccc2O)c2c1C(c1ccc(O)cc1O)SC(N)=N2 (stereo not drawn)	> 10	> 10	> 10	> 10	> 10	> 10	> 10	> 10	> 10	> 10									
N#Cc1c(N)oc(-c2ccc([N+](=O)[O-])cc2)c1C#N	> 100	42.4	> 100	72.4	> 100	62.9	> 100	47.1	> 100	64.2									
Cc1cc2cc3cc(C)c(N)cc3nc2cc1N	11	1.7	1.75	1.6	1.6	4.89	1.44	6.9	2.71	10.4									
C[C@@]1(CCCCCCCCCCc2ccccc2)C[C@@]2(C)OC(=O)C[C@H]2OO1	35.8	53.3	32.9	4.88	40.7	2.16	2.97	6.79	35	45									
CC(C)(C)COC(=O)C(C)(C)NC(=O)C(CC(=O)OCc1ccccc1)NC(=O)OCc1ccccc1 (stereo not drawn)	> 100	> 100	> 100	> 100	> 100	> 100	> 100	> 100	> 100	> 100									
CC(C)=CC1C(C(=O)Oc2ccccc2C(C)C)C1(C)C (stereo not drawn)	38.5	> 100	42.5	33	66	> 100	61.7	62	38	33.1									
CC(C)(C)NC1=NC(C(F)(F)F)(C(F)(F)F)NC(=O)N1	59.6	> 100	> 100	> 100	> 100	> 100	> 100	> 100	> 100	> 100									
COc1ccc2nc3c([N+](=O)[O-])ccc(NCCN(C)C)c3c(N)c2c1	0.41	2.74	3.31	2.64	0.562	2.54	2.9	2.62	1.1	4.76									
N[C@H]1c2c(Br)sc(Br)c2C(=O)[C@H]1O	10.5	32.8	34.5	> 64.6	25.8	38.9	5.79	79.7	34.8	69.9									
Clc1ccc(CCNC2(c3cc4ccccc4s3)CCCCC2)cc1Cl	40.9	> 100	36.8	63.3	> 100	29.8	32.5	49.3	33.5	36.8									
COC(=O)CN(CC(=O)NCCCBr)C1CCCCC1N(CC(=O)OC)CC(=O)OC (stereo not drawn)	> 100	> 100	> 100	> 100	> 100	> 100	> 100	64.9	> 100	> 100									
COC(=O)c1c(O)ccc2c1c1cc3ccccc3cc1n2Cc1cc(OC)cc(OC)c1	30.6	1.69	> 100	> 100	> 100	> 100	> 100	8.94	> 100	24.6									

SMILES	TGI (HL-60(TB) leukemia) [µM]	TGI (IGROV1 ovarian) [µM]	TGI (786-0 renal) [µM]	TGI (ACHN renal) [µM]	TGI (SW-620 colon) [µM]	TGI (HOP-92 NSCLC) [µM]	TGI (SR leukemia) [µM]	TGI (SNB-75 CNS) [µM]	TGI (MCF7 breast) [µM]	TGI (SK-MEL-2 melanoma) [µM]	GI50 (HL-60(TB) leukemia) [µM]	GI50 (IGROV1 ovarian) [µM]	GI50 (ACHN renal) [µM]	GI50 (SW-620 colon) [µM]	GI50 (HOP-92 NSCLC) [µM]	GI50 (SR leukemia) [µM]	GI50 (SNB-75 CNS) [µM]	GI50 (MCF7 breast) [µM]	GI50 (SK-MEL-2 melanoma) [µM]
O=C1/C(=C/c2ccc(O)cc2)CCCC1CN1CCCCC1 (stereo not drawn)	0.924	3.8	2.38	3.11	3.8	3.47	4.35	22.5	6.49	26.9									
COC(=O)C(Cc1ccccc1)NC(=O)C(CS)NC(=O)OC(C)(C)C (stereo not drawn) (Boc-Cys-Phe-OMe; configuration not given here)	> 100	> 100	> 100	> 100	> 100	> 100	> 100	> 100	> 100	> 100									
O=C(CCBr)N1CCN(C(=O)CCBr)CC1	206	245	191	316	218	284	174	180	215	221									
O=C(NC(=S)Nc1ccc([N+](=O)[O-])cc1)c1ccc2c(c1)Sc1ccccc1O2	> 100	> 100	> 100	> 100	> 100	> 100	> 100	29.6	> 100	> 100									
CCOP(=O)(CCCC(O)CNc1nc(N)nc(Cl)c1N=Nc1ccc(Cl)cc1)OCC (stereo not drawn)	4.19	26.1	17.9	15.4	36.5	25.8	6.82	11.1	27	27.3									
CN(C)Cc1c(O)ccc2c1c1c(n2C)C(=O)c2ccccc2C1=O	> 100	85.2	> 100	> 100	> 100	> 100	> 100	51.8	> 100	24.8									
COC(=O)Nc1nc2ccc(S(=O)(=O)Nc3ccccn3)cc2[nH]1	34.8	> 100	> 100	> 100	66.6	> 100	64.1	71.1	> 100	> 100									
COc1cc(CC(C)=O)cc(OC)c1	78.5	> 100	> 100	> 100	> 100	> 100	85.4	> 100	> 100										
CC(=O)OCC1OC(N2C(=O)NC(=O)C3C=C4CCCCC4=CC32)CC1OC(C)=O (stereo not drawn)	> 100	> 100	> 100	> 100	> 100	> 100	> 100	> 100	> 100	> 100									
COC(=O)CNC(=O)C(Cc1ccccc1)NC(=O)c1ccc(-c2ccc(Cl)cc2Cl)o1 (stereo not drawn)	41.2	> 100	38.7	66.5	> 100	39.1	36	> 100	62.1	96.6									
O=c1[nH]c2ccccc2c(O)c1Cc1ccccc1	> 100	> 100	> 100	> 100	> 100	> 100	> 100	> 100	> 100										
Cc1ccc(S(=O)(=O)N2CCC[C@@H]2C(=O)O[C@@H]2CCC3CC=CC32)cc1 (stereo partly drawn)	64.2	> 100	55.4	> 100	> 100	44	61	> 100	> 100										
COc1cc(C2S/C(=C/c3ccccc3)C(=O)N2Cc2ccccc2)cc(OC)c1OC (stereo not drawn)	> 100	> 100	> 100	> 100		> 100	57.2	73.3	> 100	> 100									
Cc1ccc(/C=C/C(=O)Oc2ccc(/C=C3\CCC/C(=C\c4ccc(OC(=O)/C=C/c5ccc(C)cc5)cc4)C3=O)cc2)cc1	> 100		81	> 100	> 100	> 100	96.4	36.3	> 100	> 100									
COc1ccc2c(c1)N(Cc1ccc(Cl)cc1)CCC2N1CCCC1=O (stereo not drawn)	24.9	> 100		88.2	> 100	20.5	> 100	35.8	25.5	28.8	5.34	3.51	4.85	6.48	2.75	6.37	3.22	3.5	6
